Patent US8153767B2 (priority 2006, dated 2012)
Converted amounts (≈) assume the structure as drawn.

Assays:
[1] = test system: rabbit antiserum (aflatoxin B1 hapten immunogen)
[2] = test system: monoclonal antibody useful for detecting all aflatoxins (JP-A 4-360695); conditions: cited from earlier work
[3] = test system: mouse antiserum (aflatoxin B1 hapten immunogen)
[4] = test system: antibody AF-1 (JP-A 63-219394); conditions: cited from earlier work

Structure (SMILES): COc1cc2c(c3oc(=O)c4c(c13)CCOC4=O)C1C=COC1O2 (stereo not drawn) [Aflatoxin G1]
- IC50 [1]: 0.63 ng/mL (≈ 1.92 nM)
- crossreactivities in terms of IC50 [2]: 2.4 ng/mL
- IC50 [3]: 0.6 ng/mL (≈ 1.83 nM)
- ability to bind to G1 relative to its ability to bind to B1 or B2 [4]: 1/10

Structure (SMILES): COc1cc2c(c3oc(=O)c4c(c13)CCOC4=O)C1CCOC1O2 (stereo not drawn) [Aflatoxin G2]
- IC50 [1]: 18 ng/mL (≈ 54.5 nM)
- crossreactivities in terms of IC50 [2]: 5.2 ng/mL
- IC50 [3]: 16 ng/mL (≈ 48.4 nM)

Structure (SMILES): COc1cc2c(c3oc(=O)c4c(c13)CCC4=O)C1CCOC1O2 (stereo not drawn) [Aflatoxin B2]
- IC50 [1]: 1.7 ng/mL (≈ 5.41 nM)
- crossreactivities in terms of IC50 [2]: 2.1 ng/mL
- IC50 [3]: 1.5 ng/mL (≈ 4.77 nM)

Structure (SMILES): COc1cc2c(c3oc(=O)c4c(c13)CCC4=O)C1C=COC1O2 (stereo not drawn) [Aflatoxin B1]
- IC50 [1]: 0.07 ng/mL (≈ 0.224 nM)
- crossreactivities in terms of IC50 [2]: 0.44 ng/mL
- IC50 [3]: 0.07 ng/mL (≈ 0.224 nM)

Structure (SMILES): COc1cc2c(c3oc(=O)c4c(c13)CCC4=O)C1(O)C=COC1O2 (stereo not drawn) [Aflatoxin M1]
- IC50 [1]: 14 ng/mL (≈ 42.6 nM)
- IC50 [3]: 11 ng/mL (≈ 33.5 nM)
